Test results reported in patent publication US10766869B2, “Triazoles for the treatment of demyelinating dieases” (Vertex Pharmaceuticals Incorporated, priority 2015, dated 2020).
Where two headings read alike, the source gives them in different places.

System: primary rat mixed cortical cells
Test: In vitro myelination assay (MBP positive myelin strands, fold myelin pixels above background)
Type: cell-based
Conditions: Rattus norvegicus; for fold induction at 1 µM: 1.0 μM compound; for fold induction at 10 µM: 10.0 μM compound
Description: In Vitro Myelination Assay
Compounds were screened for their ability to induce myelination using a primary rat mixed cortical cell culture assay, which contains neurons, oligodendrocyte precursor cells, oligodendrocytes, astrocytes and microglia. The assay quantifies myelination by measuring myelin basic protein (MBP) immunofluorescent positive myelin strands from images taken using a Cellomics Array Scan (model Arrayscan VTI HCS Reader) or a Molecular Devices Image Xpress (model IXM XL) high content imager. The myelin strands were quantitated using a custom created myelin detection software program. Test compounds were dissolved in DMSO to make a 10 mM initial stock solution. Dilutions were made in myelination medium to obtain the final solutions for the assay and were tested in primary rat mixed cortical cells at selected doses.
Primary rat mixed cortical cells were prepared from harvested cerebral cortices from postnatal day 1 (P1) rats (P1 Rat CD® IGS pups) were purchased from Charles River) in Complete Dissociation Medium, wherein the meninges were removed and the cortical tissue chopped with a razor blade into ˜1 mm^3 pieces. Tissue from 1-3 pups was collected and placed into 15 ml conical tubes in a total volume of 5 ml of Complete Dissociation Medium. Activated papain (3 ml) was added to each 15 ml conical tube and tissue was incubated at 37° C. for 30 minutes. After the 30 minute incubation, DNase (Sigma D4527; 75 μl of a 1 mg/ml stock) was added to each tube, followed by mechanical trituration using a 2 ml serological pipette and autopipettor to gently dissociate the tissue. Following trituration, larger tissue pieces were allowed to settle by gravity, and the supernatant containing dissociated cells was transferred to a 50 ml conical tube with 4 ml of trypsin inhibitor. Cells were pelleted by centrifugation, resuspended in myelination medium and filtered through a 40 μm filter. Cells were then seeded in 96-well plates (BD Biosciences, Black, PDL-coated, Cat. No. 356640) at 87,500-95,000 cells/well in a final volume of 200 μl of Myelination Medium in the presence or absence of compound and cultured for 14 days in a humidified 37° C. incubator with 5% CO2. Half the medium was removed and replaced with fresh medium containing 1× compound on days 6 and 10. Using a Biotek automatic plate washer (model Biomek® FXP Laboratory Automation Workstation), cells were fixed with 4% paraformaldehyde on day 14, washed with PBS and blocked in 5% normal goat serum (Vector Laboratories, S-1000) in 0.1% PBS-TritonX-100 (PBST) for 1 hour. Cells were stained with 1:500 anti-MBP (Covance, cat # SMI99) primary antibody in 1% normal goat serum in 0.1% PBST for 2 hours at room temperature followed by 2 washes with PBST. A final incubation in secondary antibody (1:1000, Invitrogen, Alexa-488 anti-mouse IgG2b) and 1:10,000 Hoechst dye in 1% normal goat serum in 0.1% PBST was performed for 2 hours at room temperature. Plates were washed with PBS and then scanned on a Cellomics Array Scan using a 10× objective (25 images per well) or the Image Xpress using a 10× objective (9 image per well). Images were analyzed using Vertex myelin detection software (described below) to quantify total MBP myelin pixels per well. Fold myelin pixels above background at two concentrations (1.0 μM and 10.0 μM) relative to baseline of no added compound are reported below in Table 4. Standard deviation for each compound concentration was calculated using all replicates and using a standard deviation formula commonly used in the art.
One of skill in the art would recognize that for this type of primary neuronal mixed cell assay variability between different assay runs is to be expected even though the protocol is the same for each assay run. For instance, variability may be due to small differences in cell viability, cell density, age of the animals, etc.
Vertex Myelin Detection Software: […]

[1] = relative to baseline of no added compound, read-out: Fold myelin pixels above background, 1.0 μM
[2] = relative to baseline of no added compound, read-out: Fold myelin pixels above background, 10.0 μM
[3] = read-out: Fold myelin pixels above background relative to baseline of no added compound
[4] = relative to baseline of no added compound, read-out: Fold myelin pixels above background

**Q.** How did the fold induction at 1 µM [1] turn out when `Cc1cc(Nc2ncn(-c3cc(F)cc(F)c3)n2)cc(N2CCN(C3CCOCC3)CC2)c1` [Compound 243, 1-(3,5-difluorophenyl)-N-[3-methyl-5-(4-tetrahydropyran-4-ylpiperazin-1-yl)phenyl]-1,2,4-triazol-3-amine] was run?
**A.** 100 to 1000

**Q.** What about the fold induction at 10 µM [2] of the same compound?
**A.** ≤ 1

**Q.** What does the source list for `COCCN1CCC(Nc2cc(C)cc(Nc3ncn(-c4cc(F)cc(F)c4)n3)c2)CC1` [Compound 930, N3-[1-(3,5-difluorophenyl)-1,2,4-triazol-3-yl]-N1-[1-(2-methoxyethyl)-4-piperidyl]-5-methyl-benzene-1,3-diamine]?
**A.** fold induction at 1 µM [3]: 10 to 100; fold induction at 10 µM [3]: ≤ 1

**Q.** Which results are given for `c1ccc(-n2cnc(Nc3cc(C4CCOCC4)cc(C4CCOCC4)c3)n2)cc1` [Compound 10, N-[3,5-di(tetrahydropyran-4-yl)phenyl]-1-phenyl-1,2,4-triazol-3-amine]?
**A.** fold induction at 1 µM [1]: 1 to 10; fold induction at 10 µM [2]: ≤ 1

**Q.** How did the fold induction at 1 µM [4] turn out when `COc1ccc(-n2cnc(Nc3cc(C)cc(N4CCN(C5COC5)CC4)c3)n2)cc1` [Compound 710, 1-(4-methoxyphenyl)-N-[3-methyl-5-[4-(oxetan-3-yl)piperazin-1-yl]phenyl]-1,2,4-triazol-3-amine] was run?
**A.** 10 to 100

**Q.** And the fold induction at 10 µM [4]?
**A.** ≤ 1

**Q.** What does the source list for `Cc1cc(Nc2ncn(-c3cc(F)cc(F)c3)n2)cc(N2CC3(C2)CN(C(C)C)C3)c1` [Compound 1081, 1-(3,5-difluorophenyl)-N-[3-(2-isopropyl-2,6-diazaspiro[3.3]heptan-6-yl)-5-methyl-phenyl]-1,2,4-triazol-3-amine]?
**A.** fold induction at 1 µM [3]: 1 to 10; fold induction at 10 µM [3]: 1 to 10

**Q.** What does the source list for `COCC1CCN(c2cc(C(F)(F)F)cc(Nc3ncn(-c4cc(F)cc(F)c4)n3)n2)CC1` [Compound 839, N-[1-(3,5-difluorophenyl)-1,2,4-triazol-3-yl]-6-[4-(methoxymethyl)-1-piperidyl]-4-(trifluoromethyl)pyridin-2-amine]?
**A.** fold induction at 1 µM [3]: 1 to 10; fold induction at 10 µM [3]: ≤ 1

**Q.** Which fold induction at 1 µM [4] does the source give for `Fc1cc(F)cc(-n2cnc(Nc3cc(N4CCN(C5COC5)CC4)cc(Cl)n3)n2)c1` [Compound 733, 6-chloro-N-[1-(3,5-difluorophenyl)-1,2,4-triazol-3-yl]-4-[4-(oxetan-3-yl)piperazin-1-yl]pyridin-2-amine] here?
**A.** 1 to 10

**Q.** What about the fold induction at 10 µM [4] of the same compound?
**A.** 1 to 10

**Q.** For `Cc1cc(OCC2COC2)cc(Nc2ncn(-c3cc(F)cc(F)c3)n2)c1C` [Compound 909, 1-(3,5-difluorophenyl)-N-[2,3-dimethyl-5-(oxetan-3-ylmethoxy)phenyl]-1,2,4-triazol-3-amine], which fold induction at 1 µM [3] is on record?
**A.** 1 to 10

**Q.** What about the fold induction at 10 µM [3] of the same compound?
**A.** 10 to 100

**Q.** `Cc1cc(C#CC2CC2)cc(Nc2ncn(-c3cccc(F)c3)n2)c1` [Compound 769, N-[3-(2-cyclopropylethynyl)-5-methyl-phenyl]-1-(3-fluorophenyl)-1,2,4-triazol-3-amine] was tested. Which fold induction at 1 µM [4] did it give?
**A.** 1 to 10

**Q.** What about the fold induction at 10 µM [4] of the same compound?
**A.** ≤ 1

**Q.** How did the fold induction at 1 µM [4] turn out when `N#Cc1cc(Nc2ncn(-c3cnccn3)n2)cc(N2CCOCC2)c1` [Compound 666, 3-morpholino-5-[(1-pyrazin-2-yl-1,2,4-triazol-3-yl)amino]benzonitrile] was run?
**A.** 10 to 100

**Q.** And the fold induction at 10 µM [4]?
**A.** 1 to 10

**Q.** `Cc1cc(Nc2ncn(-c3cccnc3)n2)cc(N2CCN(C)CC2)c1` [Compound 297, N-[3-methyl-5-(4-methylpiperazin-1-yl)phenyl]-1-(3-pyridyl)-1,2,4-triazol-3-amine] was tested. Which fold induction at 1 µM [1] did it give?
**A.** 10 to 100

**Q.** And the fold induction at 10 µM [2]?
**A.** 10 to 100

**Q.** `Cc1cc(Nc2ncn(-c3cc(F)cc(F)c3)n2)cc(N2CCN(CCN3CCCC3)CC2)c1` [Compound 944, 1-(3,5-difluorophenyl)-N-[3-methyl-5-[4-(2-pyrrolidin-1-ylethyl)piperazin-1-yl]phenyl]-1,2,4-triazol-3-amine] was tested. Which fold induction at 1 µM [3] did it give?
**A.** 1 to 10

**Q.** And the fold induction at 10 µM [3]?
**A.** ≤ 1

**Q.** Which fold induction at 1 µM [4] does the source give for `CC(=O)N1CCC(c2cc(C)cc(Nc3ncn(-c4ccccc4)n3)c2)C1` (stereo not shown) [Compound 443, 1-[3-[3-methyl-5-[(1-phenyl-1,2,4-triazol-3-yl)amino]phenyl]pyrrolidin-1-yl]ethanone] here?
**A.** 1000 to 10000

**Q.** And the fold induction at 10 µM [4]?
**A.** ≤ 1

**Q.** With `COCCN1CCN(c2cc(C)cc(Nc3ncn(-c4ccccc4)n3)c2)CC1` [Compound 253, N-[3-[4-(2-methoxyethyl)piperazin-1-yl]-5-methyl-phenyl]-1-phenyl-1,2,4-triazol-3-amine] as the compound, how does the fold induction at 1 µM [1] read?
**A.** 1000 to 10000

**Q.** What about the fold induction at 10 µM [2] of the same compound?
**A.** 10 to 100

**Q.** With `Cc1cc(Nc2ncn(-c3ccc(F)c(F)c3)n2)cc(N[C@H]2C[C@H](N3CCOCC3)C2)c1` (single isomer, unassigned) [Compound 792, N1-[1-(3,4-difluorophenyl)-1,2,4-triazol-3-yl]-5-methyl-N3-(3-morpholinocyclobutyl)benzene-1,3-diamine] as the compound, how does the fold induction at 1 µM [3] read?
**A.** 10 to 100

**Q.** What about the fold induction at 10 µM [3] of the same compound?
**A.** ≤ 1

**Q.** What does the source list for `Cc1cc(Nc2ncn(-c3cc(F)cc(F)c3)n2)cc(N2CCOC3(CCOCC3)CC2)c1` [Compound 906, 1-(3,5-difluorophenyl)-N-[3-(3,7-dioxa-10-azaspiro[5.6]dodecan-10-yl)-5-methyl-phenyl]-1,2,4-triazol-3-amine]?
**A.** fold induction at 1 µM [3]: 10 to 100; fold induction at 10 µM [3]: 1 to 10

**Q.** How did the fold induction at 1 µM [1] turn out when `Cc1cc(Nc2ncn(-c3cc(F)cc(N4CC[C@@H](C(C)(C)O)C4)c3)n2)cc(N2CCN(C3COC3)CC2)c1` [Compound 318, 2-[(3R)-1-[3-fluoro-5-[3-[3-methyl-5-[4-(oxetan-3-yl)piperazin-1-yl]anilino]-1,2,4-triazol-1-yl]phenyl]pyrrolidin-3-yl]propan-2-ol] was run?
**A.** 10 to 100

**Q.** What about the fold induction at 10 µM [2] of the same compound?
**A.** ≤ 1

**Q.** `Cc1cc(N2CC(N3CCOCC3)C2)cc(Nc2ncn(-c3cc(F)cc(F)c3)n2)n1` [Compound 616, N-[1-(3,5-difluorophenyl)-1,2,4-triazol-3-yl]-6-methyl-4-(3-morpholinoazetidin-1-yl)pyridin-2-amine] was tested. Which fold induction at 1 µM [4] did it give?
**A.** 1 to 10

**Q.** And the fold induction at 10 µM [4]?
**A.** ≤ 1

**Q.** With `Cc1cc(Nc2ncn(-c3ccc(C#N)c(F)c3)n2)cc(N2CCN(C3COC3)CC2)c1` [Compound 140, 2-fluoro-4-[3-[3-methyl-5-[4-(oxetan-3-yl)piperazin-1-yl]anilino]-1,2,4-triazol-1-yl]benzonitrile] as the compound, how does the fold induction at 1 µM [1] read?
**A.** 1 to 10

**Q.** And the fold induction at 10 µM [2]?
**A.** 1 to 10

**Q.** With `Cc1cc(Nc2ncn(-c3cc(F)cc(F)c3)n2)cc(N2CC(N3C4CCC3COC4)C2)c1` [Compound 746, 1-(3,5-difluorophenyl)-N-[3-methyl-5-[3-(3-oxa-8-azabicyclo[3.2.1]octan-8-yl)azetidin-1-yl]phenyl]-1,2,4-triazol-3-amine] as the compound, how does the fold induction at 1 µM [4] read?
**A.** 10 to 100

**Q.** What about the fold induction at 10 µM [4] of the same compound?
**A.** 10 to 100

**Q.** Which results are given for `Cc1cc(Nc2ncn(-c3cc(F)cc(C(F)(F)F)c3)n2)cc(N2CCN(C3COC3)CC2)c1` [Compound 757, 1-[3-fluoro-5-(trifluoromethyl)phenyl]-N-[3-methyl-5-[4-(oxetan-3-yl)piperazin-1-yl]phenyl]-1,2,4-triazol-3-amine]?
**A.** fold induction at 1 µM [4]: 10 to 100; fold induction at 10 µM [4]: 10 to 100

**Q.** For `Fc1cccc(-n2cnc(Nc3cc(C(F)F)cc(N4CCN(C5COC5)CC4)n3)n2)c1` [Compound 525, 4-(difluoromethyl)-N-[1-(3-fluorophenyl)-1,2,4-triazol-3-yl]-6-[4-(oxetan-3-yl)piperazin-1-yl]pyridin-2-amine], which fold induction at 1 µM [4] is on record?
**A.** 100 to 1000

**Q.** What about the fold induction at 10 µM [4] of the same compound?
**A.** 10 to 100

**Q.** What does the source list for `Fc1cc(F)cc(-n2cnc(Nc3cc(Cl)cc(N4CCN(C5COC5)CC4)c3)n2)c1` [Compound 5, N-[3-chloro-5-[4-(oxetan-3-yl)piperazin-1-yl]phenyl]-1-(3,5-difluorophenyl)-1,2,4-triazol-3-amine]?
**A.** fold induction at 1 µM [1]: 1000 to 10000; fold induction at 10 µM [2]: ≤ 1
